19 compounds from ChEMBL document CHEMBL1795338, “Identification of pentacyclic triterpenes derivatives as potent inhibitors against glycogen phosphorylase based on 3D-QSAR studies” (Eur J Med Chem, 2011) can be followed below.

The target of this experiment is T1, Glycogen phosphorylase, muscle form (Oryctolagus cuniculus, UniProt P00489).
T1 sequence (P00489 whole entry): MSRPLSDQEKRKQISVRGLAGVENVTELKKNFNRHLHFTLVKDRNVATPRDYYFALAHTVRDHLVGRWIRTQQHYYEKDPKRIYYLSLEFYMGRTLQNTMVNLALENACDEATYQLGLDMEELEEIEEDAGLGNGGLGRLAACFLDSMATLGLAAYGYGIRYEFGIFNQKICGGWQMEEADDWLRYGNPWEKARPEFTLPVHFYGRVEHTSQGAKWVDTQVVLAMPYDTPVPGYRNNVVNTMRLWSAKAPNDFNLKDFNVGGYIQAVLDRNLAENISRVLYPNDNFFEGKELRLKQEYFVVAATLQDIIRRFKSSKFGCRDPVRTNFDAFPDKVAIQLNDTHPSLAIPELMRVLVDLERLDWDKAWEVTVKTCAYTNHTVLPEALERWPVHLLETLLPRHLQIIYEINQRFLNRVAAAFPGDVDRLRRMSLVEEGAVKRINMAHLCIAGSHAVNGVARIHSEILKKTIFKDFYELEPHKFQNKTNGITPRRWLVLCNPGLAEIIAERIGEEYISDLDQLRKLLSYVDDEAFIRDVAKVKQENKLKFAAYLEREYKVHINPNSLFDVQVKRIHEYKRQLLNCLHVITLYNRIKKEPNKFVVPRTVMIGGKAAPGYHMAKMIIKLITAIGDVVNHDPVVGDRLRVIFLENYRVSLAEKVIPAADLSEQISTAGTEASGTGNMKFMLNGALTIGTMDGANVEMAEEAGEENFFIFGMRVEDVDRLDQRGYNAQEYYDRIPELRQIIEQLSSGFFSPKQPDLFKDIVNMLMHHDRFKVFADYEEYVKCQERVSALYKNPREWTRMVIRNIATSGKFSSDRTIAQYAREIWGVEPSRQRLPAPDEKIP
Put plainly: Inhibition of rabbit muscle glycogen phosphorylase A assessed as release of phosphate from glucose-1-phosphate after 25 mins by microplate reader based method.
As a reminder, the IC50 is the point on the concentration scale where inhibition reaches its midpoint. As for `Cc1ccc(-n2ncc3c2C(C)(C)[C@@H]2CC[C@]4(C)[C@H](CC=C5[C@@H]6CC(C)(C)CC[C@]6(C(=O)OCc6ccccc6)CC[C@]54C)[C@@]2(C)C3)cc1`, the IC50 is 106 µM.

Take `CC1(C)CC[C@]2(C(=O)OCc3ccccc3)CC[C@]3(C)C(=CC[C@@H]4[C@@]5(C)Cc6cnn(-c7ccc(Cl)cc7)c6C(C)(C)[C@@H]5CC[C@]43C)[C@@H]2C1`: the half-maximal inhibitory concentration (IC50) was determined as 11.2 µM. Under `COc1ccc(-n2ncc3c2C(C)(C)[C@@H]2CC[C@]4(C)[C@H](CC=C5[C@@H]6CC(C)(C)CC[C@]6(C(=O)OCc6ccccc6)CC[C@]54C)[C@@]2(C)C3)cc1` stands 13.1 µM; under `CC1(C)CC[C@]2(C(=O)OCc3ccccc3)CC[C@]3(C)C(=CC[C@@H]4[C@@]5(C)Cc6cn[nH]c6C(C)(C)[C@@H]5CC[C@]43C)[C@@H]2C1`, 8.1 µM; under `CC1(C)CC[C@]2(COC(=O)CCC(=O)O)CC[C@]3(C)C(=CC[C@@H]4[C@@]5(C)Cc6c[nH]nc6C(C)(C)[C@@H]5CC[C@]43C)[C@@H]2C1`, 24.7 µM. For the compound `C[C@H]1[C@H](C)CC[C@]2(C(=O)O)CC[C@]3(C)C(=CC[C@@H]4[C@@]5(C)Cc6cn[nH]c6C(C)(C)[C@@H]5CC[C@]43C)[C@H]12`, the IC50 was determined as 40.4 µM. Under `C[C@H]1[C@H](C)CC[C@]2(C(=O)OCc3ccccc3)CC[C@]3(C)C(=CC[C@@H]4[C@@]5(C)Cc6cn[nH]c6C(C)(C)[C@@H]5CC[C@]43C)[C@H]12` stands 72.9 µM. For `Cn1cc2c(n1)C(C)(C)[C@@H]1CC[C@]3(C)[C@H](CC=C4[C@@H]5CC(C)(C)CC[C@]5(C(=O)OCc5ccccc5)CC[C@]43C)[C@@]1(C)C2` the value was 188 µM; for `CCn1cc2c(n1)C(C)(C)[C@@H]1CC[C@]3(C)[C@H](CC=C4[C@@H]5CC(C)(C)CC[C@]5(C(=O)OCc5ccccc5)CC[C@]43C)[C@@]1(C)C2`, 64.6 µM; for `CC1(C)CC[C@]2(C(=O)OCc3ccccc3)CC[C@]3(C)C(=CC[C@@H]4[C@@]5(C)Cc6cn(C7CC7)nc6C(C)(C)[C@@H]5CC[C@]43C)[C@@H]2C1`, 20.5 µM. Under `CC1(C)CC[C@]2(C(=O)OCc3ccccc3)CC[C@]3(C)C(=CC[C@@H]4[C@@]5(C)Cc6cn(CC(=O)O)nc6C(C)(C)[C@@H]5CC[C@]43C)[C@@H]2C1` stands 47.1 µM.

As for `CC1(C)CC[C@]2(C(=O)OCc3ccccc3)CC[C@]3(C)C(=CC[C@@H]4[C@@]5(C)Cc6cn(Cc7ccccc7)nc6C(C)(C)[C@@H]5CC[C@]43C)[C@@H]2C1`, the IC50 is 126 µM.

For the compound `CCOC(=O)Cn1cc2c(n1)C(C)(C)[C@@H]1CC[C@]3(C)[C@H](CC=C4[C@@H]5CC(C)(C)CC[C@]5(C(=O)OCc5ccccc5)CC[C@]43C)[C@@]1(C)C2`, the IC50 came to 111 µM. Under `CC1(C)CC[C@]2(C(=O)OCc3ccccc3)CC[C@]3(C)C(=CC[C@@H]4[C@@]5(C)Cc6cn(Cc7ccc(Cl)cc7Cl)nc6C(C)(C)[C@@H]5CC[C@]43C)[C@@H]2C1` stands 179 µM. Under `CC(=O)n1cc2c(n1)C(C)(C)[C@@H]1CC[C@]3(C)[C@H](CC=C4[C@@H]5CC(C)(C)CC[C@]5(C(=O)O)CC[C@]43C)[C@@]1(C)C2` stands 53.8 µM; under `CC1(C)CC[C@]2(C(=O)O)CC[C@]3(C)C(=CC[C@@H]4[C@@]5(C)Cc6cn(S(C)(=O)=O)nc6C(C)(C)[C@@H]5CC[C@]43C)[C@@H]2C1`, 49.3 µM; under `CCC(=O)n1cc2c(n1)C(C)(C)[C@@H]1CC[C@]3(C)[C@H](CC=C4[C@@H]5CC(C)(C)CC[C@]5(C(=O)O)CC[C@]43C)[C@@]1(C)C2`, 37.2 µM. Under `C[C@H]1[C@H](C)CC[C@]2(C(=O)OCc3ccccc3)CC[C@]3(C)C(=CC[C@@H]4[C@@]5(C)C=C(O)C(=O)C(C)(C)[C@@H]5CC[C@]43C)[C@H]12` stands 7.31 µM. With `CC1(C)CC[C@]2(C(=O)O)CC[C@]3(C)C(=CC[C@@H]4[C@@]5(C)Cc6cn[nH]c6C(C)(C)[C@@H]5CC[C@]43C)[C@@H]2C1`, the IC50 was 7.8 µM.
